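Protocol summary: plate cells (96-well), add compound at 5 concentrations, incubate 48 h, interpolate endpoints linearly. GI50 is the concentration that inhibits growth by half. TGI is the concentration that stops growth completely.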

Some test systems named below: CAKI-1 renal; EKVX NSCLC; HL-60(TB) leukemia; HS 578T breast; LOX IMVI melanoma; NCI-H226 lung; NCI-H460 lung; OVCAR-3 ovarian; SK-OV-3 ovarian; SNB-75 CNS.
What all share (assay): NCI-60 cell line screen, 48 h

In the case of `C=C(C)[C@@H]1CC[C@]2(COCCCNCCCN)CC[C@]3(C)[C@H](CC[C@@H]4[C@@]5(C)CC[C@H](OCCCN)C(C)(C)[C@@H]5CC[C@]43C)[C@@H]12`, the GI50 is 982 nM in the experiment with CAKI-1 renal; 812 nM in the experiment on EKVX NSCLC; 2120 nM in the experiment with HL-60(TB) leukemia; 997 nM in the experiment on HS 578T breast; 846 nM with LOX IMVI melanoma; 1040 nM in the experiment with NCI-H226 lung. The GI50 with NCI-H460 lung was 940 nM; in the experiment with OVCAR-3 ovarian, 942 nM; in the experiment with SK-OV-3 ovarian, 1390 nM; in the experiment with SNB-75 CNS, 778 nM. The TGI was determined as 2.3 µM with CAKI-1 renal; 1.61 µM in the experiment with EKVX NSCLC; 8.33 µM with HL-60(TB) leukemia; 2.15 µM with HS 578T breast; 1570 nM in the experiment on LOX IMVI melanoma; 2.34 µM in the experiment with NCI-H226 lung. Further, the TGI is 1750 nM in the experiment with NCI-H460 lung, 1720 nM in the experiment on OVCAR-3 ovarian, 4.28 µM in the experiment on SK-OV-3 ovarian and 1.57 µM in the experiment with SNB-75 CNS.

With `Cc1cc2c(cc1C)[n+](=O)c(C(=O)/C=C/c1ccc3c(c1)OCO3)c(C)n2[O-]`, the TGI is above 89 µM in the experiment on CAKI-1 renal; above 100 µM in the experiment with EKVX NSCLC; above 100 µM in the experiment on HL-60(TB) leukemia; 64 µM in the experiment on HS 578T breast; above 85200 nM in the experiment with LOX IMVI melanoma; above 100 µM in the experiment on NCI-H226 lung. The TGI with NCI-H460 lung is above 100000 nM; in the experiment with OVCAR-3 ovarian, above 100000 nM; in the experiment on SK-OV-3 ovarian it was 52.2 µM; with SNB-75 CNS it was 39.9 µM.

Consider `COc1cccc(-n2ncc3c(N/N=C/c4ccc(C)cc4)ncnc32)c1`, for which the GI50 was above 25000 nM in the experiment on CAKI-1 renal; above 25000 nM in the experiment on EKVX NSCLC; above 25000 nM with HL-60(TB) leukemia; above 17400 nM in the experiment with HS 578T breast; above 25000 nM with LOX IMVI melanoma; above 25000 nM in the experiment on NCI-H226 lung. The GI50 in the experiment on NCI-H460 lung, in the experiment on OVCAR-3 ovarian, in the experiment on SK-OV-3 ovarian and in the experiment on SNB-75 CNS was above 25000 nM each time. Also, the TGI with CAKI-1 renal was above 25 µM; with EKVX NSCLC, above 25 µM; with HL-60(TB) leukemia, above 25 µM; in the experiment with HS 578T breast it was above 25 µM; with LOX IMVI melanoma it was above 25000 nM; in the experiment on NCI-H226 lung, above 25 µM. Also, the TGI was above 25000 nM in the experiment on NCI-H460 lung, above 25000 nM with OVCAR-3 ovarian, above 25 µM in the experiment on SK-OV-3 ovarian and above 25 µM in the experiment with SNB-75 CNS.

Take `CC/C=C\C[C@H](O)C/C=C1/C(=O)C=C[C@@H]1C/C=C\CCCC(=O)OC(C)C`: the GI50 in the experiment on CAKI-1 renal was 2510 nM; in the experiment with EKVX NSCLC, 3040 nM; in the experiment with HL-60(TB) leukemia it was 824 nM; in the experiment on HS 578T breast, 5210 nM; in the experiment with LOX IMVI melanoma, 180 nM; with NCI-H226 lung, 2580 nM. Further, the GI50 was 1680 nM in the experiment on NCI-H460 lung, 483 nM in the experiment with OVCAR-3 ovarian, 5010 nM with SK-OV-3 ovarian and 4780 nM with SNB-75 CNS. Moreover, the TGI in the experiment with CAKI-1 renal is 10.3 µM; in the experiment with EKVX NSCLC, 11.6 µM; in the experiment on HL-60(TB) leukemia, 6.71 µM; in the experiment on HS 578T breast it was 41.2 µM; with LOX IMVI melanoma it was 410 nM; with NCI-H226 lung, 6.08 µM. Also, the TGI with NCI-H460 lung was found to be 3970 nM; in the experiment with OVCAR-3 ovarian it was 1710 nM; with SK-OV-3 ovarian, 16.1 µM; in the experiment on SNB-75 CNS it was 19.7 µM.

As to `O=C1Nc2ccccc2/C1=C\c1cccc(/C=C2/C(=O)Nc3ccccc32)n1`, the GI50 with CAKI-1 renal was 338 nM; with EKVX NSCLC it was 692 nM; in the experiment with HL-60(TB) leukemia it was 452 nM; with HS 578T breast, 294 nM; in the experiment on LOX IMVI melanoma, 190 nM; with NCI-H226 lung, 1530 nM. Besides, the GI50 in the experiment with NCI-H460 lung was 669 nM; in the experiment with OVCAR-3 ovarian, 254 nM; in the experiment on SK-OV-3 ovarian, 1210 nM; in the experiment on SNB-75 CNS it was 1320 nM. Besides, the TGI in the experiment with CAKI-1 renal stood at 1.27 µM; in the experiment on EKVX NSCLC, 8.74 µM; in the experiment on HS 578T breast, 1.31 µM; in the experiment on LOX IMVI melanoma, 440 nM; in the experiment with NCI-H226 lung it was 5.13 µM; in the experiment on NCI-H460 lung it was 1850 nM. Moreover, the TGI was found to be 683 nM in the experiment with OVCAR-3 ovarian, 2.76 µM with SK-OV-3 ovarian and 3.46 µM in the experiment with SNB-75 CNS.

Values taken from PubChem BioAssay (NCI).
